Data as given in patent US20060069132A1, “Azolecarboxamide herbicides” (priority 2004, published 2006).

Legend:
giant foxtail = assay: Test A pre-/postemergence herbicide test; format: in vivo, Setaria faberi
Outline: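 Visual injury scores on a 0–100 scale (100 = complete control) taken about ten days post-treatment in greenhouse against untreated controls; dash means no result. Treatments: preemergence soil spray and postemergence spray to runoff on one- to two-leaf plants 2 to 10 cm tall, surfactant-containing formulation.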

lambsquarters = assay: Test B pre-/postemergence herbicide test; format: in vivo, Chenopodium album; conditions: for Lambsquarters plant response rating (0 to 100 scale): 0 = no effect, 100 = complete control; for Lambsquarters plant response rating (0 to 100 scale) / Plant response rating, Lambsquarters: preemergence; for Lambsquarters plant response rating: postemergence, visual rating, scale 0 (no effect) to 100 (complete control)
Outline: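 Visual rating, 0 (no effect) to 100 (complete control), versus untreated controls after 13–15 d in greenhouse. Pre- and postemergence applications (postemergence plants 2–18 cm, 1–4 leaves); flooded paddy arm at 2-leaf stage. Compounds in non-phytotoxic solvent plus surfactant.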

barnyardgrass = assay: Test B flooded paddy test; format: in vivo, Echinochloa crus-galli; conditions: 1000 g ai/ha, visual rating, scale 0 to 100 (0 no effect, 100 complete control), 13 to 15 days
Outline: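 Visual control ratings, 0–100 versus untreated controls, taken after 13 to 15 days in the greenhouse. Blackgrass received a postemergence spray at the 1- to 4-leaf stage (2–18 cm); ducksalad, umbrella sedge and barnyardgrass were flooded-paddy treated at 2 leaves.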

Surinam grass = assay: Test C pre-/postemergence herbicide test; format: in vivo, Urochloa decumbens
Outline: (§1)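 Visual ratings on a 0–100 scale (100 = complete control) made versus untreated controls after 12 to 14 greenhouse days. Test chemicals, formulated in surfactant-containing non-phytotoxic solvent, applied preemergence to planted seeds or postemergence to 1- to 4-leaf plants (2 to 18 cm).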

goosegrass = assay: Test C pre-/postemergence herbicide test; format: in vivo, Eleusine indica
Outline: as §1

pigweed = assay: Test C pre-/postemergence herbicide test; format: in vivo, Amaranthus retroflexus
Outline: as §1

soybean = assay: Test C pre-/postemergence herbicide test; format: in vivo, Glycine max
Outline: as §1

[1] = Postemergence, 500 g ai/ha, 0 to 100 scale, 0 no effect, 100 complete control
[2] = Postemergence, 2000 g ai/ha, 0 to 100 scale, 0 no effect, 100 complete control
[3] = Preemergence, 2000 g ai/ha, visual rating, 0 to 100 scale (0 no effect, 100 complete control)
[4] = preemergence, 500 g ai/ha, visual injury, 0 to 100 scale (0 no effect, 100 complete control)
[5] = 500 g ai/ha, visual rating 0-100, 0 no effect, 100 complete control
[6] = 62 g ai/ha, preemergence, scale 0 to 100
[7] = 125 g ai/ha, scale 0 (no effect) to 100 (complete control), visual, 12 to 14 days, preemergence
[8] = 250 g ai/ha, scale 0-100, preemergence
[9] = Preemergence, 500 g ai/ha, scale 0 to 100, 0 no effect, 100 complete control
[10] = 500 g ai/ha, scale 0 to 100 (0 no effect, 100 complete control), visual, 12 to 14 days, preemergence
[11] = Postemergence, 500 g ai/ha, scale 0 to 100
[12] = Postemergence, 250 g ai/ha, scale 0 to 100, 0 no effect, 100 complete control
[13] = postemergence, 125 g ai/ha, scale 0 to 100
[14] = postemergence, 62 g ai/ha, scale 0 to 100

In the case of `CCc1nc(C(C)(C)C)sc1C(=O)Nc1cccc(C(=O)N(CC)CC)c1` [Compound 205], the “Foxtail, Giant plant response rating” value (giant foxtail; [1]) is reported as 10, the “Plant response rating, Foxtail, Giant” value (giant foxtail; [2]) is reported as 25 and the “Foxtail, Giant plant response rating” value (giant foxtail; [3]) is reported as 100. For the same compound, the “Foxtail, Giant plant response rating” value (giant foxtail; [4]) was 85, the “Lambsquarters plant response rating (0 to 100 scale)” value (lambsquarters; 125 g ai/ha) was 80 and the “Plant response rating, Lambsquarters” value (lambsquarters; [5]) was 100. The “Lambsquarters plant response rating” value (lambsquarters; 125 g ai/ha) was 60, the “Lambsquarters plant response rating” value (lambsquarters; 500 g ai/ha) was 70 and the “Barnyardgrass plant response rating” value (barnyardgrass) was 70. The “Plant response rating, Surinam Grass” value (Surinam grass; [6]) was 0, the “Plant response rating, Surinam Grass” value (Surinam grass; [7]) was 20 and the “Plant response rating, Surinam Grass” value (Surinam grass; [8]) was 50. For the same compound, the “Surinam Grass plant response rating” value (Surinam grass; [9]) was 85, the “Plant response rating, Goosegrass” value (goosegrass; [6]) was 50 and the “Plant response rating, Goosegrass” value (goosegrass; [7]) was 70. For the same compound, the “Plant response rating, Goosegrass” value (goosegrass; [8]) was 80, the “Goosegrass plant response rating” value (goosegrass; [9]) was 95 and the “Plant response rating, Pigweed” value (pigweed; [6]) was 90. For the same compound, the “Plant response rating, Pigweed” value (pigweed; [7]) was 95, the “Plant response rating, Pigweed” value (pigweed; [8]) was 95 and the “Pigweed plant response rating” value (pigweed; [9]) was 100. For the same compound, the “Plant response rating, Soybean” value (soybean; [7]) was 20, the “Plant response rating, Soybean” value (soybean; [8]) was 20 and the “Soybean plant response rating” value (soybean; [9]) was 60.
With `CCN(CC)C(=O)c1cccc(NC(=O)c2sc(C(C)(C)C)nc2C)c1` [Compound 199] the “Foxtail, Giant plant response rating” value (giant foxtail; [1]) was 25, the “Plant response rating, Foxtail, Giant” value (giant foxtail; [2]) was 65 and the “Foxtail, Giant plant response rating” value (giant foxtail; [3]) was 100. For the same compound, the “Foxtail, Giant plant response rating” value (giant foxtail; [4]) was 80, the “Lambsquarters plant response rating (0 to 100 scale)” value (lambsquarters; 125 g ai/ha) was 80 and the “Plant response rating, Lambsquarters” value (lambsquarters; [5]) was 90. For the same compound, the “Lambsquarters plant response rating” value (lambsquarters; 125 g ai/ha) was 60, the “Lambsquarters plant response rating” value (lambsquarters; 500 g ai/ha) was 70 and the “Barnyardgrass plant response rating” value (barnyardgrass) was 10. For the same compound, the “Plant response rating, Surinam Grass” value (Surinam grass; [6]) was 0, the “Plant response rating, Surinam Grass” value (Surinam grass; [7]) was 0 and the “Plant response rating, Surinam Grass” value (Surinam grass; [8]) was 30. The “Surinam Grass plant response rating” value (Surinam grass; [9]) was 75, the “Plant response rating, Goosegrass” value (goosegrass; [6]) was 5 and the “Plant response rating, Goosegrass” value (goosegrass; [7]) was 70. For the same compound, the “Plant response rating, Goosegrass” value (goosegrass; [8]) was 90, the “Goosegrass plant response rating” value (goosegrass; [9]) was 95 and the “Plant response rating, Pigweed” value (pigweed; [6]) was 100. For the same compound, the “Plant response rating, Pigweed” value (pigweed; [7]) was 100, the “Plant response rating, Pigweed” value (pigweed; [8]) was 100 and the “Pigweed plant response rating” value (pigweed; [9]) was 100. For the same compound, the “Plant response rating, Soybean” value (soybean; [6]) was 0, the “Plant response rating, Soybean” value (soybean; [7]) was 0 and the “Plant response rating, Soybean” value (soybean; [8]) was 5. The “Soybean plant response rating” value (soybean; [9]) was 30.
In the case of `CCCCOc1cccc(NC(=O)c2cc(C(C)(C)C)nn2CC)c1` [Compound 137], the “Foxtail, Giant plant response rating” value (giant foxtail; [1]) is reported as 20, the “Plant response rating, Foxtail, Giant” value (giant foxtail; [2]) is reported as 30 and the “Foxtail, Giant plant response rating” value (giant foxtail; Preemergence, 500 g ai/ha, visual rating, 0 to 100 scale (0 no effect, 100 complete control)) is reported as 50. The “Foxtail, Giant plant response rating” value (giant foxtail; [3]) was 80, the “Plant response rating, Lambsquarters” value (lambsquarters; [5]) was 80 and the “Lambsquarters plant response rating” value (lambsquarters; 125 g ai/ha) was 80. For the same compound, the “Lambsquarters plant response rating” value (lambsquarters; 500 g ai/ha) was 80, the “Plant response rating, Lambsquarters” value (lambsquarters; 125 g ai/ha, 0 to 100 scale, 0 is no effect, 100 is complete control) was 10 and the “Barnyardgrass plant response rating” value (barnyardgrass) was 20. For the same compound, the “Plant response rating (0 = no effect, 100 = complete control), Surinam Grass” value (Surinam grass; 62 g ai/ha, preemergence) was 0, the “Plant response rating, Surinam Grass” value (Surinam grass; [7]) was 10 and the “Surinam Grass plant response rating” value (Surinam grass; [9]) was 60. The “Plant response rating (0 = no effect, 100 = complete control), Goosegrass” value (goosegrass; 62 g ai/ha, preemergence) was 40, the “Plant response rating, Goosegrass” value (goosegrass; [7]) was 85 and the “Goosegrass plant response rating” value (goosegrass; [9]) was 100. The “Plant response rating (0 = no effect, 100 = complete control), Pigweed” value (pigweed; 62 g ai/ha, preemergence) was 100, the “Plant response rating, Pigweed” value (pigweed; [7]) was 100 and the “Pigweed plant response rating” value (pigweed; [9]) was 100. For the same compound, the “Plant response rating (0 = no effect, 100 = complete control), Soybean” value (soybean; 62 g ai/ha, preemergence) was 0, the “Plant response rating, Soybean” value (soybean; [7]) was 0 and the “Soybean plant response rating” value (soybean; [9]) was 10.
`CCc1nc(C(C)(C)C)sc1C(=O)Nc1cccc(C(=O)NCC2CC2)c1` [Compound 212] was tested, and the “Foxtail, Giant plant response rating” value (giant foxtail; [1]) was 45, the “Plant response rating, Foxtail, Giant” value (giant foxtail; [2]) was 80 and the “Foxtail, Giant plant response rating” value (giant foxtail; [3]) was 95. For the same compound, the “Foxtail, Giant plant response rating” value (giant foxtail; [4]) was 70, the “Lambsquarters plant response rating (0 to 100 scale)” value (lambsquarters; 125 g ai/ha) was 100 and the “Plant response rating, Lambsquarters” value (lambsquarters; [5]) was 100. For the same compound, the “Lambsquarters plant response rating” value (lambsquarters; 125 g ai/ha) was 90, the “Lambsquarters plant response rating” value (lambsquarters; 500 g ai/ha) was 100 and the “Barnyardgrass plant response rating” value (barnyardgrass) was 50. The “Plant response rating, Surinam Grass” value (Surinam grass; [6]) was 0, the “Plant response rating, Surinam Grass” value (Surinam grass; [7]) was 0 and the “Plant response rating, Surinam Grass” value (Surinam grass; [8]) was 5. For the same compound, the “Plant response rating, Surinam Grass” value (Surinam grass; [10]) was 20, the “Surinam Grass plant response rating” value (Surinam grass; [11]) was 50 and the “Plant response rating, Surinam Grass” value (Surinam grass; [12]) was 20. The “Plant response rating, Surinam Grass” value (Surinam grass; [13]) was 5, the “Plant response rating, Surinam Grass” value (Surinam grass; [14]) was 0 and the “Plant response rating, Goosegrass” value (goosegrass; [6]) was 10. For the same compound, the “Plant response rating, Goosegrass” value (goosegrass; [7]) was 60, the “Plant response rating, Goosegrass” value (goosegrass; [8]) was 95 and the “Plant response rating, Goosegrass” value (goosegrass; [10]) was 100. The “Goosegrass plant response rating” value (goosegrass; [11]) was 30, the “Plant response rating, Goosegrass” value (goosegrass; [12]) was 25 and the “Plant response rating, Goosegrass” value (goosegrass; [13]) was 10. For the same compound, the “Plant response rating, Goosegrass” value (goosegrass; [14]) was 10, the “Plant response rating, Pigweed” value (pigweed; [6]) was 100 and the “Plant response rating, Pigweed” value (pigweed; [7]) was 100. The “Plant response rating, Pigweed” value (pigweed; [8]) was 100, the “Plant response rating, Pigweed” value (pigweed; [10]) was 100 and the “Pigweed plant response rating” value (pigweed; [11]) was 90. For the same compound, the “Plant response rating, Pigweed” value (pigweed; [12]) was 70, the “Plant response rating, Pigweed” value (pigweed; [14]) was 50 and the “Plant response rating, Soybean” value (soybean; [6]) was 0. The “Plant response rating, Soybean” value (soybean; [7]) was 0, the “Plant response rating, Soybean” value (soybean; [8]) was 0 and the “Plant response rating, Soybean” value (soybean; [10]) was 60. For the same compound, the “Soybean plant response rating” value (soybean; [11]) was 85, the “Plant response rating, Soybean” value (soybean; [12]) was 70 and the “Plant response rating, Soybean” value (soybean; [13]) was 60. The “Plant response rating, Soybean” value (soybean; [14]) was 50.
